Tests used:
Trichomonas hominis = assay: in vitro protozoicidal test on Trichomonas hominis (watch glass, microscope); type: cell-based; details: in aqueous polysorbate 80 (0.05%); for LD100: concentration giving death of 100% of individuals within 3 minutes
Amoeba proteus = assay: in vitro protozoicidal test on Amoeba proteus (watch glass, microscope); type: cell-based; details: in aqueous polysorbate 80 (0.05%); for LD100: concentration giving death of 100% of individuals within 3 minutes
Gregarina blattarum = assay: in vitro protozoicidal test on gregarines isolated from cockroaches; type: cell-based; details: Ringer's solution; for LD100: lethal concentration for 100% of individuals within 3 minutes
Source text: For in vitro tests of antiprotozoal activity of the composition five reference organisms representing taxonomic groups to which pathogenic protozoa belong were selected, i.e: • Amoeba proteus—Chaos diffluens—a protozoan of the order Euamoebida, belonging to fifth supergroup of the Amoebozoa, living in waters. • Paramecium caudatum—a slipper animalcule representing the Ciliata orachs, living in waters. • Gregarina blattarum—gregarine isolated from cockroaches, representing the phylum Apicomplexa, living in the digestive tracts or body cavities of invertebrates. • Euglena gracilis—a protozoan living in water, representing the flagellates—Mastigophora, family Euglenaceae. • Trichomonas hominis—a protozoan living in the human colon, representing the Trichomonadidae.
The gregarines were isolated from the cockroaches and, after being placed on a watch slide, were treated with the products at different concentrations in Ringer's solution. Each sample contained ten individuals.
The compositions, negative controls, and positive controls were dissolved in an aqueous solution of polysorbate 80 (0.05%) before application to a watch slide.
Compositions I and II were then analysed for their antiprotozoal properties. […]
Individual acids, catalyst solution, essential oil and metal salt solutions were also analysed for protozoal properties. […] Observation under a fluorescence microscope with phase contrast was carried out.

[1] = test system: Trypanosoma cruzi and Leishmania chagasi; details: Escobar et al. 2010; cited from earlier work
Trypanosoma cruzi = details: read-out: inhibitory effect on 50% of the population (IC50), Becco et al. 2012; cited from earlier work
Paramecium caudatum = assay: in vitro protozoicidal test on Paramecium caudatum (watch glass, microscope); type: cell-based; details: concentration giving death of 100% of individuals within 3 minutes, in aqueous polysorbate 80 (0.05%)
Euglena gracilis = assay: in vitro protozoicidal test on Euglena gracilis (watch glass, microscope); type: cell-based; details: concentration giving death of 100% of individuals within 3 minutes, in aqueous polysorbate 80 (0.05%)
[2] = concentration giving death of 50% of individuals within 3 minutes

Row | Compound | LD50 (Trichomonas hominis; [2]) [%] | LD100 (Trichomonas hominis) [%] | LD50 (Amoeba proteus; [2]) [%] | LD100 (Amoeba proteus) [%] | LD50 (Gregarina blattarum; lethal concentration for 50% of individuals within 3 minutes) [%] | LD100 (Gregarina blattarum) [%] | IC50 [1] [µg/mL] | IC50 (Trypanosoma cruzi) [µM] | LD100 (Paramecium caudatum) [%] | LD100 (Euglena gracilis) [%]
1 | Cc1ncc([N+](=O)[O-])n1CCO [M, metronidazole, reference compound] | 0.05 | 0.1 | 0.3 | 0.5 | 0.13 | 0.3 |  |  |  | 
2 | CC1CS(=O)(=O)CCN1/N=C/c1ccc([N+](=O)[O-])o1 (stereo not shown) [Nifurtimox] |  |  |  |  |  |  | 0.3 to 0.4 | 6 |  | 
3 | copper carbonate [Copper carbonate solution] |  | 0.3 |  |  |  |  |  |  | 0.5 | 0.25
4 | zinc carbonate [Zinc carbonate solution] |  | 0.4 |  | 0.25 |  | 0.4 |  |  | 0.5 | 0.3

Source: patent publication US20230270809A1, “VETERINARY COMPOSITIONS FOR THE TREATMENT AND/OR PREVENTION OF PROTOZOAN DISEASES AND METHODS OF PREPARATION THEREOF” (ADIFEED SP. Z O. O., priority 2020, published 2023)
